Source: US5914339A, “Substituted 1,3-benzodioxoles” (American Home Products Corporation, priority 1997, dated 1999)
Counter-ions that a name gives are not always drawn.

The molecules below were run against human β2 adrenergic receptor (Homo sapiens, UniProt P07550) (assay: cell-based). Conditions: 10 min; compounds tested at 10 nM, isoproterenol at 10 μM; CHO cells, 10 min at 37° C; read-out: β2: % of isoproterenol activity (increase in cAMP).
Procedure: The activity of the test compounds on human β-adrenergic receptors was determined with Chinese hamster ovary (CHO) cells transfected with human β2, or β1 adrenergic receptors. Agonist activity is indicated by increased cAMP levels in the CHO cells. Selectivity of the test compounds for the β3 receptor was assessed by comparison with results in β2 and β1 adrenergic receptor transfected cells.
1). Chinese hamster ovary (CHO) cells transfected with human β2, or β1 adrenergic receptors were used in the assay.
2). Cells were grown to confluent conditions in 24 well plates.
3). Drugs were dissolved in DMSO at a concentration of 10 μM.
4). Cells were incubated with drug at 10 nM concentration for 10 min at 37° C.
5). Cell cAMP concentrations were assayed using a scintillation proximity assay kit from Amersham Corp., Chicago, Ill.
6). Activities for the test compounds are expressed as a percentage of the isoproterenol response.
Production of the CHO cells transfected with human β2, or β1 adrenergic receptors, and compound test procedures utilizing the CHO cells, are described by Emorine et al. in their article "Molecular Characterization of the Human Beta3 -Adrenergic Receptor", Science 1989, 245(8), 1118-1121 and by Muzzin et al. in the article "An Adipose Tissue-Specific Beta3 -Adrenergic Receptor", J. Biol. Chem.1991, 266, 24053-24058.
^a Human β receptors expressed in Chinese hamster ovary cells,
compounds tested at 10 nM, results expressed as % of isoproterenol
activity (increase in cAMP) at 10 μM. EC50 (μM) values
determined for selected compounds.

Sequence of human β2 adrenergic receptor (P07550 whole entry): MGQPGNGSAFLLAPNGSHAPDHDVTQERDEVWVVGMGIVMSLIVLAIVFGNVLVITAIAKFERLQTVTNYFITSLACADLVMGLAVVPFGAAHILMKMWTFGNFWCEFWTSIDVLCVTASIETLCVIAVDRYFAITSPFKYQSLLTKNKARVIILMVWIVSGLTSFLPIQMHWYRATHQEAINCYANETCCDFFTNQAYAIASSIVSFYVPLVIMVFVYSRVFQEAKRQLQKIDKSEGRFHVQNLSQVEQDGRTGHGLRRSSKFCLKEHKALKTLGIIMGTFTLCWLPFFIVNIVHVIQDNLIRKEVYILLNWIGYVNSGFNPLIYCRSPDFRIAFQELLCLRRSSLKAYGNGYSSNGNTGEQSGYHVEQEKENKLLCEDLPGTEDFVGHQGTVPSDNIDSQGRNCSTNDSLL

Point of comparison: C[C@H](Cc1ccc2c(c1)OC(C(=O)OCC13CC4CC(CC(C4)C1)C3)(C(=O)OCC13CC4CC(CC(C4)C1)C3)O2)NC[C@H](O)c1cccc(Cl)c1 (stereo partly drawn) [Example 77, 5-{(2R)-2-[(2R)-2-(3-Chloro-phenyl)-2-hydroxy-ethylamino]-propyl}-benzo[1,3]dioxole-2,2-dicarboxylic acid bis-adamantan-1-ylmethyl ester], activation at 0.01 µM 5%. Against it:
- CCC(CC)COC(=O)C1(C(=O)OCC(CC)CC)Oc2ccc(C[C@@H](C)NC[C@H](O)c3cccc(Cl)c3)cc2O1 [Example 74, 5-{(2R)-2-[(2R)-2-(3-Chloro-phenyl)-2-hydroxy-ethylamino]-propyl}-benzo[1,3]dioxole-2,2-dicarboxylic acid bis-(2-ethylbutyl) ester] — lower, 0%
- CC(Cc1ccc2c(c1)OC(C(=O)OCOC(=O)C(C)C)(C(=O)OCOC(=O)C(C)C)O2)NCC(O)c1cccc(Cl)c1 (centres unmarked) [Example 45, 5-{2-[2-(3-Chloro-phenyl)-2-hydroxyethylamino]propyl}benzo[1,3] dioxole-2,2-dicarboxylic acid bis-isobutyryloxymethyl ester] — lower, 1%
- CC(Cc1ccc2c(c1)OC(C(=O)OCOC(=O)c1ccccc1)(C(=O)OCOC(=O)c1ccccc1)O2)NCC(O)c1cccc(Cl)c1 (centres unmarked) [Example 56, 5-{2-[2-(3-Chloro-phenyl)-2-hydroxy-ethylamino]propyl}benzo[1,3]dioxole-2,2-dicarboxylic acid bis-benzoyloxymethyl ester] — higher, 8%
- CC(OC(=O)OC1CCCCC1)OC(=O)C1(C(=O)OC(C)OC(=O)OC2CCCCC2)Oc2ccc(C[C@@H](C)NC[C@H](O)c3cccc(Cl)c3)cc2O1 (stereo partly drawn) [Example 59, 5-{(2R)-2-[(2R)-2-(3-Chloro-phenyl)-2-hydroxy-ethylamino]-propyl}-benzo[1,3]dioxole-2,2-dicarboxylic acid bis-[1-(cyclohexyloxycarbonyloxy)-ethyl] ester] — higher, 10%
- CC(C)CCCOC(=O)C1(C(=O)OCCCC(C)C)Oc2ccc(CC(C)NCC(O)c3cccc(Cl)c3)cc2O1 (centres unmarked) [Example 35, 5-{2-[2-(3-Chloro-phenyl)-2-hydroxy-ethylamino]-propyl}-benzo[1,3]dioxole-2,2-dicarboxylic acid bis-(4-methyl-pentyl) ester] — lower, 4%
- CCC(=O)OCOC(=O)C1(C(=O)OCOC(=O)CC)Oc2ccc(CC(C)NCC(O)c3cccc(Cl)c3)cc2O1 (centres unmarked) [Example 43, 5-{2-[2-(3-Chloro-phenyl)-2-hydroxyethylamino]propyl}benzo[1,3] dioxole-2,2-dicarboxylic acid bis-propionyloxymethyl ester] — lower, 0%
- C=CCOC(=O)C1(C(=O)OCC=C)Oc2ccc(C[C@@H](C)NC[C@H](O)c3cccc(Cl)c3)cc2O1 [Example 98, 5-{(2R)-2-[(2R)-2-(3-Chloro-phenyl)-2-hydroxy-ethylamino]-propyl}-benzo[1,3]dioxole-2,2-dicarboxylic acid diallyl ester] — higher, 7%

Same assay, conditions: CHO, 10 min, read-out: β2: % of isoproterenol activity (increase in cAMP)

Point of comparison: CC(Cc1ccc2c(c1)OC(C(=O)OC1CCCCC1)(C(=O)OC1CCCCC1)O2)NCC(O)c1cccc(Cl)c1 (centres unmarked) [Example 10, 5-{2-[2-(3-Chloro-phenyl)-2-hydroxy-ethylamino]-propyl}-benzo[1,3]dioxole-2,2-dicarboxylic acid bis-(cyclohexyl) ester hydrochloride salt], activation at 0.01 µM 0%. Against it:
- COCCOC(=O)C1(C(=O)OCCOC)Oc2ccc(CC(C)NCC(O)c3cccc(Cl)c3)cc2O1 (centres unmarked) [Example 1, 5-{2-[2-(3-Chloro-phenyl)-2-hydroxy-ethylamino]-propyl}-benzo[1,3]dioxole-2,2-dicarboxylic acid bis-(2-methoxy-ethyl) ester hydrochloride salt] — higher, 4%
- C[C@H](Cc1ccc2c(c1)OC(C(=O)OCCc1cccc(Br)c1)(C(=O)OCCc1cccc(Br)c1)O2)NC[C@H](O)c1cccc(Cl)c1 [Example 96, 5-{(2R)-2-[(2R)-2-(3-Chloro-phenyl)-2-hydroxy-ethylamino]-propyl}-benzo[1,3]dioxole-2,2-dicarboxylic acid bis-[2-(3-bromo-phenyl)-ethyl]ester hydrochloride salt] — higher, 1%
